Measured values: patent US20080003305A1, “PROCESS AND COMPOSITIONS FOR THE DISINFECTION OF WATERS” (BROMINE COMPOUNDS LIMITED, priority 1991, published 2008)

Experiments:
Pseudomonas sp. = experiment: Efficacy in buffer at pH-7.5 against Pseudomonas sp.; assay type: cell-based; conditions: buffer pH 7.5, 1 ppm as Cl2
Method: Efficacy in Buffer at pH-7.5 against Pseudomonas sp.
Chlorine demand: 0.1 ppm out of 1 ppm within 20 minutes
NH4Br+NaOCl: stock concentration: 1000 ppm as Cl2
Preparation of stock solution: NH4Br was dissolved in de-ionized water (2761 ppm). NaOCl (2000 ppm as Cl2) was quickly added dropwise to the ammonium bromide solution while stirring the mixture. The stock solution was used immediately.

bacillus mycoides = experiment: Efficacy of ammonium bromide at various pHs; assay type: cell-based; conditions: 2 ppm as Cl2
Method: Efficacy of Ammonium Bromide at Various pHs
Examined MO: bacillus mycoides
NH4Br+NaOCl: molar ratio 1:1; stock concentration: 0.5%;
NH4Br+NaOCl was either pre-mixed or added in situ to the buffer.
Demand: 1.8 ppm out of 2 ppm of Cl2 within 60 minutes.

[1] = test system: MOs in starch sizing mixture; experiment: Efficacy of oxidizing and non-oxidizing biocides in a starch sizing mixture (paper industry); assay type: cell-based; conditions: 30 ppm active ingredient, 60° C.
Method: Efficacy of Oxidizing and Non-Oxidizing Biocides is a Starch Sizing Mixture (Paper Industry)
Efficacy was measured at 60° C.
NH4Br+NaOCl: stock concentration 0.1%.
Dosage: 30 ppm active ingredient.
Incubation temperature 60° C.

total aerobic MOs = experiment: Kinetics of kill in water from a citrus juice evaporator: total aerobic; assay type: cell-based; conditions: 30 ppm as Cl2
Method: (§1) Kinetics of Kill of Various Mixtures of Ammonium Salts Mixed with NaOCl in Water from a Citrus Juice Evaporator
(§2) Demand: Higher than 30 ppm out of 30 ppm of Cl2 during 10 minutes.
(§3) Stock concentration of NH4X+NaOCl: 0.1% as Cl2

total anaerobic MOs = experiment: Kinetics of kill in water from a citrus juice evaporator: total anaerobic; assay type: cell-based; conditions: 30 ppm as Cl2
Method: as §1, §2, §3

[2] = Residue as Cl2 in water from a citrus juice evaporator; assay type: physicochemical; conditions: 30 ppm as Cl2
Method: as §1, §2, §3

[3] = test system: total aerobic viable counts; experiment: Efficacy of oxidizing biocides in water taken from a paper mill (thick stock of pulp slurry); assay type: cell-based; conditions: 15 mg/l as Cl2
Method: Efficacy of Oxidizing Biocides in Water Taken from a Paper Mill (Thick Stock of Pulp Slurry)
Microorganisms were incubated at 37° C. (total aerobic viable counts).
Concentration of stock solution: 0.1% as Cl2.

aerob. MOs = experiment: Efficacy in domestic waste containing a high concentration of amines: aerobic MOs; assay type: cell-based; conditions: 60 ppm; contact time 10 minutes; N as NH3 50mg/l; pH 6.10
Method: (§4) Efficacy of a Series of Biocides in Domestic Waste Containing a High Concentration of Amines
(§5) Incubation temperature: 27° C.
(§6) Stock concentration: 0.2%

anaer. MOs = experiment: Efficacy in domestic waste containing a high concentration of amines: anaerobic MOs; assay type: cell-based; conditions: 60 ppm; contact time 10 minutes; N as NH3 50mg/l; pH 6.10
Method: as §4, §5, §6

[4] = Residue as Cl2 in domestic waste containing a high concentration of amines; assay type: physicochemical; conditions: 60 ppm
Method: as §4, §5, §6

Fecal coli = experiment: Efficacy of oxidizing biocides in domestic waste: fecal coli; assay type: cell-based; conditions: 20 ppm as Cl2; contact time 10 minutes
Method: (§7) Efficacy of Oxidizing Biocides in Domestic Waste
(§8) Non-treated domestic waste roughly filtered; contact time: 10 minutes.
(§9) Stock concentration: 0.5% as Cl2.

total count [5] = experiment: Efficacy of oxidizing biocides in domestic waste: total count; assay type: cell-based; conditions: 20 ppm as Cl2; contact time 10 minutes
Method: as §7, §8, §9

[6] = Residue as Cl2 in domestic waste; assay type: physicochemical; conditions: 20 ppm as Cl2, contact time 10 minutes
Method: as §7, §8, §9

total count [7] = experiment: Pre-mixing versus in situ addition of ammonium salts and NaOCl, water from a corn-processing plant; assay type: cell-based; conditions: 12 ppm, stock formed in water
Method: Pre-Mixing Versus in Situ Addition of Ammonium Salts and NaOCl
Water from a corn-processing plant; high demand for Cl2,
NH4Cl+NaOCl: stock concentration: 1%
NH4Br+NaOCl: stock concentration: 0.5%
Stock solutions were formed at pH 14.0; 7.0, 4.0 and in water.
For in situ addition: both NH4X and NaOCl were dissolved at the appropriate pH.

total count [8] = experiment: Dependence of efficacy of NH4Br+NaOCl on the concentration of stock solution, industrial waste water; assay type: cell-based; conditions: no pre-mixed stock, 4 ppm as Cl2
Method: Dependence of Efficacy of Mixtures of NH4Br+NaOCl on the Concentrations of Stock Solution
Work was carried out in industrial waste water.
Stock concentrates were prepared in buffer at pH 7.00.
Biocidal dose: 4 ppm as Cl2.

[9] = test system: fouling of size press filters; experiment: Field experiment, starch sizing mixture (paper mill); conditions: NaOCl (10% as Cl2) fed every 8 hours, 30 liters per portion
Method: • Paper mill, starch sizing • Contained volume: 20 m^3 • Flow rate: 8.33 m^3/h. (6% starch in H2O), • pH about 8.0 • Temperature: 50° C.-70° C.
Sizing mixture is recirculated in a size press through a filter (80 microns). Circulation rate: 6 m^3/h. The sizing mixture had been previously treated with NaOCl (10% as Cl2), which was fed every 8 hours (30 liters per portion).
Use of NaOCl was replaced by the use of a mixture of NH4Br+NaOCl (stock concentration 0.5% as Cl2).

**Q.** Which “Survivors after time (minutes): 1” value (Pseudomonas sp.; 1 minute) does the source give for `[Na+].[O-]Cl` [NaOCl, sodium hypochlorite] here?
**A.** The value was 4 × 10^6 cfu/ml.

**Q.** And the “Survivors after time (minutes): 5” value (Pseudomonas sp.; 5 minutes)?
**A.** Its value is 1 × 10^5 cfu/ml.

**Q.** And the “Survivors after time (minutes): 10” value (Pseudomonas sp.; 10 minutes)?
**A.** The value was 4 × 10^2 cfu/ml.

**Q.** What about the “Survivors after time (minutes): 20” value (Pseudomonas sp.; 20 minutes) of the same molecule?
**A.** Its value is 0 cfu/ml.

**Q.** And the “Survivors pH-7.0 60 m” value (bacillus mycoides; pH 7.0, 60 m)?
**A.** Its value is 1 × 10^5 cfu/ml.

**Q.** What about the “Survivors pH-7.0 180 m” value (bacillus mycoides; pH 7.0, 180 m) of the same molecule?
**A.** The value was 1 × 10^5 cfu/ml.

**Q.** What about the “Survivors pH-7.0 24 h” value (bacillus mycoides; pH 7.0, 24 h) of the same molecule?
**A.** Its value is 1 × 10^5 cfu/ml.

**Q.** What about the “Survivors pH-8.0 60 m” value (bacillus mycoides; pH 8.0, 60 m) of the same molecule?
**A.** Its value is 3 × 10^5 cfu/ml.

**Q.** And the “Survivors pH-8.0 180 m” value (bacillus mycoides; pH 8.0, 180 m)?
**A.** The value was 1 × 10^5 cfu/ml.

**Q.** What about the “Survivors pH-8.0 24 h” value (bacillus mycoides; pH 8.0, 24 h) of the same molecule?
**A.** The value was 1 × 10^5 cfu/ml.

**Q.** And the “Survivors pH-9.0 60 m” value (bacillus mycoides; pH 9.0, 60 m)?
**A.** The value was 1 × 10^5 cfu/ml.

**Q.** And the “Survivors pH-9.0 180 m” value (bacillus mycoides; pH 9.0, 180 m)?
**A.** The value was 1 × 10^5 cfu/ml.

**Q.** And the “Survivors pH-9.0 24 h” value (bacillus mycoides; pH 9.0, 24 h)?
**A.** The value was 1 × 10^5 cfu/ml.

**Q.** What about the “Surviving MOs after time (hours): 4” value ([1]; 4 hours) of the same molecule?
**A.** The value was 4 × 10^3 cfu/ml.

**Q.** And the “Surviving MOs after time (hours): 28” value ([1]; 28 hours)?
**A.** The value was 2 × 10^6 cfu/ml.

**Q.** And the “Surviving MOs after time (hours): 48” value ([1]; 48 hours)?
**A.** Its value is 3 × 10^6 cfu/ml.

**Q.** And the “Surviving MOs after time (hours): 72” value ([1]; 72 hours)?
**A.** Its value is 3 × 10^6 cfu/ml.

**Q.** What about the “Surviving MOs after time (minutes); total aerobic: 10” value (total aerobic MOs; 10 minutes) of the same molecule?
**A.** Its value is 2 × 10^5 cfu/ml.

**Q.** And the “Surviving MOs after time (minutes); total aerobic: 20” value (total aerobic MOs; 20 minutes)?
**A.** The value was 2 × 10^7 cfu/ml.

**Q.** What about the “Surviving MOs after time (minutes); total aerobic: 60” value (total aerobic MOs; 60 minutes) of the same molecule?
**A.** Its value is 1 × 10^7 cfu/ml.

**Q.** What about the “Surviving MOs after time (minutes); (total anaerobic): 10” value (total anaerobic MOs; 10 minutes) of the same molecule?
**A.** The value was 8 × 10^4 cfu/ml.

**Q.** And the “Surviving MOs after time (minutes); (total anaerobic): 20” value (total anaerobic MOs; 20 minutes)?
**A.** Its value is 3 × 10^6 cfu/ml.

**Q.** And the “residue as Cl2 free after time (minutes): 10” value ([2]; free, 10 minutes)?
**A.** The value was 0 (0).

**Q.** What about the “residue as Cl2 free after time (minutes): 20” value ([2]; free, 20 minutes) of the same molecule?
**A.** Its value is 0 (0).

**Q.** What about the “residue as Cl2 free after time (minutes): 60” value ([2]; free, 60 minutes) of the same molecule?
**A.** Its value is 0 (0).

**Q.** What about the “residue as Cl2 (total) after time (minutes): 10” value ([2]; total, 10 minutes) of the same molecule?
**A.** The value was 0 (0).

**Q.** What about the “residue as Cl2 (total) after time (minutes): 20” value ([2]; total, 20 minutes) of the same molecule?
**A.** Its value is 0 (0).

**Q.** What about the “residue as Cl2 (total) after time (minutes): 60” value ([2]; total, 60 minutes) of the same molecule?
**A.** The value was 0 (0).

**Q.** What about the “Viable counts after time (minutes): 30” value ([3]; 30 minutes) of the same molecule?
**A.** The value was 6 × 10^3 cfu/ml.

**Q.** What about the “Viable counts after time (minutes): 70” value ([3]; 70 minutes) of the same molecule?
**A.** Its value is 2 × 10^3 cfu/ml.

**Q.** What about the “Viable counts after time: 25 hours” value ([3]; 25 hours) of the same molecule?
**A.** Its value is 1 × 10^5 cfu/ml.

**Q.** What about the “Surviving MOs after 10 minutes aerob.” value (aerob. MOs) of the same molecule?
**A.** Its value is 9 × 10^2 cfu/ml.

**Q.** And the “Surviving MOs after 10 minutes anaer.” value (anaer. MOs)?
**A.** The value was 3 × 10^3 cfu/ml.

**Q.** And the “Residue free as Cl2 after 10 minutes” value ([4]; free)?
**A.** The value was 0.2.

**Q.** And the “Residue (total) as Cl2 after 10 minutes” value ([4]; total)?
**A.** Its value is 1.5.

**Q.** What about the Fecal coli (Fecal coli) of the same molecule?
**A.** The Fecal coli was 5 × 10^5 cfu/ml.

**Q.** And the total count (total count [5])?
**A.** The total count was 6 × 10^6 cfu/ml.

**Q.** And the “residue as Cl2 free” value ([6]; free)?
**A.** Its value is 0 (0) ppm.

**Q.** And the “residue as Cl2 (total)” value ([6]; total)?
**A.** Its value is 0 (0) ppm.

**Q.** What about the “Survivors (total count) H2O, 60 minutes” value (total count [7]; 60 minutes) of the same molecule?
**A.** The value was 2 × 10^6 cfu/ml.

**Q.** What about the “Survivors (total count) H2O, 180 minutes” value (total count [7]; 180 minutes) of the same molecule?
**A.** The value was 2 × 10^6 cfu/ml.

**Q.** What about the “Survivors total count after time (minutes): 10” value (total count [8]; 10 minutes) of the same molecule?
**A.** The value was 9 × 10^5 cfu/ml.

**Q.** And the “Survivors total count after time (minutes): 180” value (total count [8]; 180 minutes)?
**A.** Its value is 7 × 10^5 cfu/ml.

**Q.** What about the “frequency of filter washing” value [9] of the same molecule?
**A.** The value was “filters had to be washed once every two hours”.
